# According to PubChem BioAssay AID1259407 (Chemical Carcinogenesis Research Information System (CCRIS), 2018):
# Active and inactive are the calls of the source. How the calls were made is not given here.
# System: CCRIS mutagenicity, Ames/micronucleus/aberration tests
# Test: CCRIS mutagenicity studies
# [1] = Test System: AMES SALMONELLA TYPHIMURIUM, Strain/Indicator: TA98, Metabolic Activation: NONE, Method: PREINCUBATION
# [2] = Test System: AMES SALMONELLA TYPHIMURIUM, Strain/Indicator: TA100, Metabolic Activation: NONE, Method: PREINCUBATION
# [3] = Test System: AMES SALMONELLA TYPHIMURIUM, Strain/Indicator: TA102, Metabolic Activation: NONE, Method: PREINCUBATION
# [4] = Test System: AMES SALMONELLA TYPHIMURIUM, Strain/Indicator: TA98, Metabolic Activation: NONE, Method: STANDARD PLATE
# [5] = Test System: AMES SALMONELLA TYPHIMURIUM, Strain/Indicator: TA100, Metabolic Activation: NONE, Method: STANDARD PLATE
# [6] = Test System: AMES SALMONELLA TYPHIMURIUM, Strain/Indicator: TA98, Metabolic Activation: RAT, LIVER, S-9, AROCLOR 1254, Method: STANDARD PLATE
# [7] = Test System: AMES SALMONELLA TYPHIMURIUM, Strain/Indicator: TA100, Metabolic Activation: RAT, LIVER, S-9, AROCLOR 1254, Method: STANDARD PLATE
# [8] = Test System: AMES SALMONELLA TYPHIMURIUM, Strain/Indicator: TA1535, Metabolic Activation: NONE, Method: STANDARD PLATE
# [9] = Test System: AMES SALMONELLA TYPHIMURIUM, Strain/Indicator: TA1535, Metabolic Activation: RAT, LIVER, S-9, AROCLOR 1254, Method: STANDARD PLATE
structure (smiles),measurement,setting,value
C#C[C@]1(O)C=C[C@H]2[C@@H]3CCC4=CC(=O)CC[C@@H]4[C@H]3CC[C@@]21CC,mutagenic call,"End Point: IN VIVO MICRONUCLEUS, Test System: BONE MARROW POLYCHROMATIC ERYTHROCYTES, Species: MOUSE, Strain/Sex: NMRI/FEMALE, Route: INTRAGASTRIC",inactive; negative
O=C1C=Cc2c(ccc3cc4ccccc4cc23)C1=O,mutagenic call,"Test System: AMES SALMONELLA TYPHIMURIUM, Strain/Indicator: TA97A, Metabolic Activation: NONE, Method: PREINCUBATION",inactive; negative
same,mutagenic call,[1],inactive; negative
same,mutagenic call,[2],inactive; negative
same,mutagenic call,[3],inactive; negative
same,mutagenic call,"Test System: AMES SALMONELLA TYPHIMURIUM, Strain/Indicator: TA104, Metabolic Activation: NONE, Method: PREINCUBATION",inactive; negative
CSSC,mutagenic call,[1],inactive; negative
same,mutagenic call,"Test System: AMES SALMONELLA TYPHIMURIUM, Strain/Indicator: TA98, Metabolic Activation: RAT, LIVER, S-9, AROCLOR 1254, Method: PREINCUBATION",inactive; negative
same,mutagenic call,[2],inactive; negative
same,mutagenic call,"Test System: AMES SALMONELLA TYPHIMURIUM, Strain/Indicator: TA100, Metabolic Activation: RAT, LIVER, S-9, AROCLOR 1254, Method: PREINCUBATION",inactive; negative
same,mutagenic call,[3],inactive; negative
same,mutagenic call,"Test System: AMES SALMONELLA TYPHIMURIUM, Strain/Indicator: TA102, Metabolic Activation: RAT, LIVER, S-9, AROCLOR 1254, Method: PREINCUBATION",inactive; negative
Cc1cc(N)c(C)c2c1[nH]c1ccccc12,mutagenic call,[4],inactive; negative
same,mutagenic call,"Test System: AMES SALMONELLA TYPHIMURIUM, Strain/Indicator: TA98, Metabolic Activation: RAT LIVER S-9, AROCLOR 1254, Method: STANDARD PLATE",active; positive
same,mutagenic call,[5],inactive; negative
same,mutagenic call,"Test System: AMES SALMONELLA TYPHIMURIUM, Strain/Indicator: TA100, Metabolic Activation: RAT LIVER S-9, AROCLOR 1254, Method: STANDARD PLATE",inactive; negative
O=C1C=CC[C@H](/C=C/c2ccccc2)O1,mutagenic call,"End Point: IN VITRO CHROMOSOMAL ABERRATIONS, Test System: CHO CELLS, Metabolic Activation: NONE",active; positive (structural changes)
same,mutagenic call,"End Point: IN VITRO CHROMOSOMAL ABERRATIONS, Test System: CHO CELLS, Metabolic Activation: RAT, LIVER, S-9, AROCLOR 1254",active; positive (structural changes)
Nc1c(Cl)cc([N+](=O)[O-])cc1[N+](=O)[O-],mutagenic call,"End Point: IN VITRO CHROMOSOMAL ABERRATIONS, Test System: CHL CELLS, Metabolic Activation: RAT, LIVER, S-9, SODIUM PHENOBARBITAL AND 5,6-BENZOFLAVONE",active; positive (structural changes); authors report equivocal results for ploidy chang
same,mutagenic call,[1],active; positive
same,mutagenic call,"Test System: AMES SALMONELLA TYPHIMURIUM, Strain/Indicator: TA98, Metabolic Activation: RAT, LIVER, S-9, KANECHLOR 500, Method: PREINCUBATION",active; positive
same,mutagenic call,"Test System: AMES SALMONELLA TYPHIMURIUM, Strain/Indicator: TA98, Metabolic Activation: RAT, LIVER, S-9, PHENOBARBITAL AND BETA-NAPHTHOFLAVONE, Method: PREINCUBATION",active; positive
same,mutagenic call,[2],active; positive
same,mutagenic call,"Test System: AMES SALMONELLA TYPHIMURIUM, Strain/Indicator: TA100, Metabolic Activation: RAT, LIVER, S-9, KANECHLOR 500, Method: PREINCUBATION",active; positive
same,mutagenic call,"Test System: AMES SALMONELLA TYPHIMURIUM, Strain/Indicator: TA100, Metabolic Activation: RAT, LIVER, S-9, PHENOBARBITAL AND BETA-NAPHTHOFLAVONE, Method: PREINCUBATION",active; positive
CSCCC(NC(=O)COc1cc(Cl)c(Cl)cc1Cl)C(=O)O (stereo unspecified),mutagenic call,"Test System: AMES SALMONELLA TYPHIMURIUM, Strain/Indicator: TA97, Metabolic Activation: NONE, Method: STANDARD PLATE",inactive; negative
same,mutagenic call,"Test System: AMES SALMONELLA TYPHIMURIUM, Strain/Indicator: TA97, Metabolic Activation: RAT, LIVER, S-9, AROCLOR 1254, Method: STANDARD PLATE",inactive; negative
same,mutagenic call,[4],inactive; negative
same,mutagenic call,[6],inactive; negative
same,mutagenic call,[5],inactive; negative
same,mutagenic call,[7],inactive; negative
same,mutagenic call,[8],inactive; negative
same,mutagenic call,[9],inactive; negative
same,mutagenic call,"Test System: AMES SALMONELLA TYPHIMURIUM, Strain/Indicator: TA1538, Metabolic Activation: NONE, Method: STANDARD PLATE",inactive; negative
same,mutagenic call,"Test System: AMES SALMONELLA TYPHIMURIUM, Strain/Indicator: TA1538, Metabolic Activation: RAT, LIVER, S-9, AROCLOR 1254, Method: STANDARD PLATE",inactive; negative
C[C@]12CC[C@H](O)C[C@@H]1CC[C@@H]1[C@@H]2CC[C@]2(C)NC(=O)CC[C@@H]12,mutagenic call,[4],inactive; negative
same,mutagenic call,[6],inactive; negative
same,mutagenic call,[5],inactive; negative
same,mutagenic call,[7],inactive; negative
same,mutagenic call,[8],inactive; negative
same,mutagenic call,[9],inactive; negative
same,mutagenic call,"Test System: AMES SALMONELLA TYPHIMURIUM, Strain/Indicator: TA1537, Metabolic Activation: NONE, Method: STANDARD PLATE",inactive; negative
same,mutagenic call,"Test System: AMES SALMONELLA TYPHIMURIUM, Strain/Indicator: TA1537, Metabolic Activation: RAT, LIVER, S-9, AROCLOR 1254, Method: STANDARD PLATE",inactive; negative
OC1C2(Cl)C3(Cl)C4(Cl)C(Cl)(Cl)C5(Cl)C3(Cl)C1(Cl)C5(Cl)C24Cl (stereo unspecified),mutagenic call,"End Point: IN VITRO CHROMOSOMAL ABERRATIONS, Test System: CHINESE HAMSTER OVARY CELLS, Metabolic Activation: NONE",inactive; negative
same,mutagenic call,"Test System: AMES SALMONELLA TYPHIMURIUM, Strain/Indicator: TA98, Metabolic Activation: HAMSTER, LIVER, S-9, AROCLOR 1254 (10%), Method: PREINCUBATION",inactive; negative
same,mutagenic call,[1],inactive; negative
same,mutagenic call,"Test System: AMES SALMONELLA TYPHIMURIUM, Strain/Indicator: TA98, Metabolic Activation: RAT, LIVER, S-9, AROCLOR 1254 (10%), Method: PREINCUBATION",inactive; negative
same,mutagenic call,"Test System: AMES SALMONELLA TYPHIMURIUM, Strain/Indicator: TA100, Metabolic Activation: HAMSTER, LIVER, S-9, AROCLOR 1254 (10%), Method: PREINCUBATION",inactive; negative
same,mutagenic call,[2],inactive; negative
same,mutagenic call,"Test System: AMES SALMONELLA TYPHIMURIUM, Strain/Indicator: TA100, Metabolic Activation: RAT, LIVER, S-9, AROCLOR 1254 (10%), Method: PREINCUBATION",inactive; negative
same,mutagenic call,"Test System: AMES SALMONELLA TYPHIMURIUM, Strain/Indicator: TA1535, Metabolic Activation: HAMSTER, LIVER, S-9, AROCLOR 1254 (10%), Method: PREINCUBATION",inactive; negative
same,mutagenic call,"Test System: AMES SALMONELLA TYPHIMURIUM, Strain/Indicator: TA1535, Metabolic Activation: NONE, Method: PREINCUBATION",inactive; negative
same,mutagenic call,"Test System: AMES SALMONELLA TYPHIMURIUM, Strain/Indicator: TA1535, Metabolic Activation: RAT, LIVER, S-9, AROCLOR 1254 (10%), Method: PREINCUBATION",inactive; negative
same,mutagenic call,"Test System: AMES SALMONELLA TYPHIMURIUM, Strain/Indicator: TA1537, Metabolic Activation: HAMSTER, LIVER, S-9, AROCLOR 1254 (10%), Method: PREINCUBATION",inactive; negative
same,mutagenic call,"Test System: AMES SALMONELLA TYPHIMURIUM, Strain/Indicator: TA1537, Metabolic Activation: NONE, Method: PREINCUBATION",inactive; negative
same,mutagenic call,"Test System: AMES SALMONELLA TYPHIMURIUM, Strain/Indicator: TA1537, Metabolic Activation: RAT, LIVER, S-9, AROCLOR 1254 (10%), Method: PREINCUBATION",inactive; negative
